Experimental data published in ChEMBL document CHEMBL1255306, “Potential basis for amphotericin B resistance in Aspergillus terreus” (2008).
≈ marks a conversion by molar mass, not a printed value. Calls of active or inactive are those of the source. No cut-off for these calls is given here.

Columns and labels:
[1] = test system: Aspergillus terreus; assay: Antimicrobial activity against AMB-resistant Aspergillus terreus assessed as high malonaldehyde activity at 10 ug/ml after 8 hrs by thiobarbituric acid test; type: functional, organism-based
[2] = test system: Aspergillus terreus; assay: Antimicrobial activity against AMB-resistant Aspergillus terreus assessed as catalase activity after 24 to 48 hrs; type: functional, organism-based
[3] = test system: Aspergillus terreus; assay: Antimicrobial activity against Aspergillus terreus conidia by CLSI M38-A broth microdilution method; type: functional
[4] = test system: Aspergillus fumigatus; assay: Antimicrobial activity against […] Aspergillus fumigatus assessed as catalase activity after 24 to 48 hrs; type: functional, organism-based
[5] = test system: Aspergillus terreus; assay: Antimicrobial activity against AMB-resistant Aspergillus terreus assessed as high malonaldehyde activity at 5 ug/ml after 8 hrs by thiobarbituric acid test; type: functional, organism-based
[6] = test system: Aspergillus fumigatus; assay: Antimicrobial activity against […] Aspergillus fumigatus assessed as high malonaldehyde activity at 5 ug/ml after 8 hrs by thiobarbituric acid test; type: functional, organism-based
[7] = test system: Aspergillus terreus; assay: Antimicrobial activity against Aspergillus terreus protoplast by CLSI M38-A broth microdilution method; type: functional
[8] = test system: Aspergillus fumigatus; assay: Antimicrobial activity against […] Aspergillus fumigatus assessed as high malonaldehyde activity at 10 ug/ml after 8 hrs by thiobarbituric acid test; type: functional, organism-based

SMILES: C[C@@H]1[C@H](O)[C@@H](C)/C=C/C=C/C=C/C=C/C=C/C=C/C=C/[C@H](O[C@@H]2O[C@H](C)[C@@H](O)[C@H](N)[C@@H]2O)C[C@@H]2O[C@](O)(C[C@@H](O)C[C@@H](O)[C@H](O)CC[C@@H](O)C[C@@H](O)CC(=O)O[C@H]1C)C[C@H](O)[C@H]2C(=O)O [AMPHOTERICIN B]
- Activity [1]: Active
- Activity [2]: Active
- MIC [3]: 1.7 µg/mL (≈ 1.84 µM)
- Activity [4]: inactive
- Activity [5]: Active
- Activity [6]: Active
- MIC [7]: 1.41 µg/mL (≈ 1.53 µM)
- Activity [8]: Active
